Here are results for 20 molecules from US12637418B2, “Heterocyclic compounds as antagonist of NMDA” (TAKEDA PHARMACEUTICAL COMPANY LIMITED, priority 2019, dated 2026).

The conditions of test [1]: in vivo; cited from earlier work.
The conditions of test [2]: in vivo; cited from earlier work. The source holds these as a separate data set.
The conditions of test [3]: rodents; cited from earlier work.
Test [4] deals with NMDA receptor composed of four subunits including 2 sets of heterodimers of NR1 and NR2B (human GRIN1 and GRIN2B expressed in HEK293 cell) (Homo sapiens, UniProt Q13224). As to the kind of experiment: NR2B Ca^2+ influx assay. In kind it is cell-based. The following applies: 10 μM final compound concentration; 30 μM glutamic acid and 30 μM glycine; HEK293 cells expressing GRIN1 and GRIN2B; Fluo-4 fluorescence; read-out: inhibitory rate (10 μM compound concentration). From the text:
To confirm the “antagonistic action on an NMDA receptor containing the NR2B subunit” of the compound of the present invention, human embryonic kidney cell expressing the “NMDA receptor composed of four subunits including 2 sets of heterodimers of NR1 and NR2B”, specifically HEK293 cell expressing human glutamate ionotropic receptor NMDA type subunit 1 (GRIN1) and human glutamate ionotropic receptor NMDA type subunit 2B (GRIN2B), was used and the activation suppressive effect on the receptors was measured.
HEK293 cells that express GRIN1 and GRIN2B were purchased from ChanTest (Human NMDA (NR1/NR2B) Receptor-expressing, stable replicating cell line (HEK293) catalog No. CT6121).
As an index of the NMDA receptor activation, intracellular calcium ion (Ca^2+) influx caused by the binding of glycine and glutamic acid with NR1 and NR2B, respectively, was used.
HEK293 cells that express GRIN1 and GRIN2B were cultured in DMEM/F-12 (COSMO BIO, 10-092-CM) medium added with 10% FBS (fetal bovine serum, AusGene), 100 units/mL penicillin, 100 μg/mL streptomycin, 500 μg/mL neomycin, 100 μg/mL Zeocin (registered trade mark, Invitrogen), 5 μg/mL Blasticidin in a cell culture flask in an incubator (under 37° C., 5% CO2).
The cells were detached from the flask with trypsin the day before the assay, suspended in a seeding medium (DMEM (Invitrogen, 31053) added with 10% FBS, 100 units/mL penicillin, 100 μg/mL streptomycin) at 8×10^5 cells/mL, seeded by 25 μL per well in a 384-well plate (Falcon, 356663) at 20000 cells/well, and cultured overnight in an incubator. On the day of the assay, tetracycline (Wako Pure Chemical Industries, Ltd., 209-16561) was diluted with the seeding medium at 2 μg/mL, added at 25 μL/well to the plate seeded with the cells, and cultured for 2 hr in an incubator. Thereafter, the medium was removed, and the cells were washed with 50 μL/well assay buffer (137 mM NaCl, 4 mM KCl, 1.8 mM CaCl2, 10 mM HEPES (pH 7.2), 10 mM Glucose, 0.1% BSA). Then, a loading buffer (assay buffer added with 2.5 μM Fluo-4AM, 2 mM Amaranth, 1 mM Tartrazine) was added at 25 μL/well, and the cells were incubated in the incubator for 30 min, and at room temperature for 15 min. A solution of the Example compound diluted with the above-mentioned assay buffer at 30 μM (final concentration 10 μM) was added at 25 μL/well, and the cells were left standing for 15 min at room temperature. Using FDSS7000EX/μCELL (Hamamatsu Photonics K.K.), an assay buffer containing 30 μM glutamic acid and 30 μM glycine was added at 25 μL/well, and fluorescence signals with wavelengths of Excitation 480 nm and Emission 540 nm were measured every 3 seconds for 5 min. The inhibitory activity was calculated as a relative activity value (inhibitory rate) that inhibits 100% of the cumulative value of the fluorescence value of a well added with an assay buffer free of glutamic acid, glycine, relative to the cumulative value of the fluorescence value of each well.

In test [5] the test system is NMDA receptor containing NR2B subunit (NMDA receptor expressed in the hippocampus tissue). The test is described as follows: In vivo [^3H]MK-801 binding test. Also noted: species or system Sprague Dawley rats. Particulars: [^3H]MK-801 binding inhibitory rate, rat hippocampus, vehicle 100%, MK-801 maleate 0%. As for the experimental part: In Vivo [^3H]MK-801 Binding Test
To confirm the “functionally antagonistic action in vivo for NMDA receptor containing NR2B subunit” that the compound of the present invention has, a binding test was performed using a tritium-labeled form of MK-801 ((5R,10S)-5-methyl-10,11-dihydro-5H-5,10-epiminodibenzo[a,d][7]annulene) ([^3H]MK-801) which is a compound that binds to the gate of the NMDA receptor.
An Example compound (1 mg/kg/2 mL, 0.5% MC water) or vehicle ([…], 0.5% MC water) was orally administered (p.o.) to Sprague Dawley rats (body weight 180-260 g). After a certain period of time (near the time when the maximum blood concentration was reached), [^3H]MK-801 (20 μCi/kg/mL, Muromachi Kikai Co., Ltd.) was intravenously administered from the tail vein. […] 10 mL of liquid scintillator A (Fujifilm Wako Pure Chemical Corporation) was added, and the residual radioactivity was measured by a liquid scintillation counter (ALOKA LSC-6100). The residual radioactivity of 100 μL of the homogenate before filtration through the glass filter was also measured in the same manner. By calculating [residual radioactivity in filter/residual radioactivity in 100 μL of homogenate], correction by the dose of [^3H]MK-801 was performed, and the value was used as a binding ratio of [^3H]MK-801 in the NMDA receptor expressed in the hippocampus tissue of each individual. […]

The conditions of test [6]: continuous intravenous administration; cited from earlier work.
For test [7] the following is noted: intravenous single administration; cited from earlier work.

Sequence of NMDA receptor composed of four subunits including 2 sets of heterodimers of NR1 and NR2B (human GRIN1 and GRIN2B expressed in HEK293 cell) (Q13224 27-1484, other chains not shown): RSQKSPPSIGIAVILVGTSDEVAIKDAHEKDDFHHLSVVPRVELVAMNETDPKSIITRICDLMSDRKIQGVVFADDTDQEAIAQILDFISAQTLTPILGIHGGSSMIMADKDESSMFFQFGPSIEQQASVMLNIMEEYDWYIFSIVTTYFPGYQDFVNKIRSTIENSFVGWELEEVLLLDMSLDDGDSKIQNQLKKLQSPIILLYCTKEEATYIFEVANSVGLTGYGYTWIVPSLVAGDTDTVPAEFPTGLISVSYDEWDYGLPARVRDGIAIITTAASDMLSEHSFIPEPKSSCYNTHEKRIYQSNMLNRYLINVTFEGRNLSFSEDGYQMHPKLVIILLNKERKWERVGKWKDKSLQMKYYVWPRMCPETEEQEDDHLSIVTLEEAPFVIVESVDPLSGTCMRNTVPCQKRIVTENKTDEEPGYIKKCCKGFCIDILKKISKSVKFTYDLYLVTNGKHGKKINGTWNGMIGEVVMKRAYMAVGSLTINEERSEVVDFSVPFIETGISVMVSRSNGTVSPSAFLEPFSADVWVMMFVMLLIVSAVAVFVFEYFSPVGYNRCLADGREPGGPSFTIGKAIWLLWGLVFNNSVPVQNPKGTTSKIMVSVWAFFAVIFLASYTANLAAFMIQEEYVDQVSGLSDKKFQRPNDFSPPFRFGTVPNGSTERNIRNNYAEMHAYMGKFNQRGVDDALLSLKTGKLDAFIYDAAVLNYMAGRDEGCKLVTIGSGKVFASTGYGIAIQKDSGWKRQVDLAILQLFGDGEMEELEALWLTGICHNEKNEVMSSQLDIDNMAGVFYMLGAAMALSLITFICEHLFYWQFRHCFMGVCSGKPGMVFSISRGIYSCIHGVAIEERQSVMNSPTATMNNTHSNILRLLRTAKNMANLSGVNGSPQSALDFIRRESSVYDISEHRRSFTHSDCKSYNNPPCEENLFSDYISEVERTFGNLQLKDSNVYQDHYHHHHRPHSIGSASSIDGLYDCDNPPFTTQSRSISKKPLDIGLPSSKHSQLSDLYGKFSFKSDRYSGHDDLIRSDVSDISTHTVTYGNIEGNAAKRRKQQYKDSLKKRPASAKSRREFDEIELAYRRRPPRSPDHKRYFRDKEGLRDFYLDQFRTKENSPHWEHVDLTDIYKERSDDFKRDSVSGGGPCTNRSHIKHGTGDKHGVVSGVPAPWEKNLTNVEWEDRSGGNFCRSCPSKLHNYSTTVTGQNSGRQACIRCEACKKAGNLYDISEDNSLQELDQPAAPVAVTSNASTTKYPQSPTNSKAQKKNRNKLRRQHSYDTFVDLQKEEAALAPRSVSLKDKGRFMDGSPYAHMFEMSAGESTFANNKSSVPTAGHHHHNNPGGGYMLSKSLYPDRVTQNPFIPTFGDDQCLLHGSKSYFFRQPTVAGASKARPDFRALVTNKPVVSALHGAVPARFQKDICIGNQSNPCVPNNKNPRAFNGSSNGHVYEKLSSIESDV

On to `CC12CC3CC(C)(C1)CC(N)(C3)C2` [memantine], for which the “peripheral symptoms of dementia” value in test [1] is reported as “partially improves peripheral symptoms of dementia”.

With `CC(C(O)c1ccc(O)cc1)N1CCC(Cc2ccccc2)CC1` (centres unmarked) [Ifenprodil], the pain sense threshold result in test [2] was “the pain sense threshold increases”.

Regarding `C[C@@H](CN1CCC(Cc2ccccc2)CC1)[C@@H](O)c1ccc(O)cc1` [Ro25-6981], the “number of occurrence and depth of cortical spreading depression” value in test [3] is “suppress the number of occurrence and the depth of cortical spreading depression”.

For `COc1ccc(C#N)c(F)c1CNC(=O)c1cnc(OC(F)F)c(F)c1` [Example 17, N-[(3-cyano-2-fluoro-6-methoxyphenyl)methyl]-6-(difluoromethoxy)-5-fluoropyridine-3-carboxamide], in test [4], the inhibition at 10 µM worked out at 96%. For the same molecule, the “inhibitory rate (1 mg/kg, p.o.)” value in test [5] is recorded as 17%.

On to `C[C@@H]([C@@H](O)c1ccc(O)cc1)N1CCC(O)(c2ccccc2)CC1` [CP-101, 606], for which, in test [3], the “number of occurrence and depth of cortical spreading depression” value is “suppress the number of occurrence and the depth of cortical spreading depression”. Moreover, the treatment resistant-depression symptom entry in test [6] is “significantly improves treatment resistant-depression symptom”.

Turning to `N#Cc1ccc(C2CC2)c(CNC(=O)c2ccc(OC(F)(F)F)c(F)c2)c1` [Example 4, N-[(5-cyano-2-cyclopropylphenyl)-methyl]-3-fluoro-4 (trifluoromethoxy)-benzamide], the inhibition at 10 µM in test [4] stood at 94%.

In the case of `Cc1ccc(C#N)cc1CNC(=O)c1cnc(OC(F)F)c(F)c1` [Example 8, N-[(5-cyano-2-methylphenyl)-methyl]-6-(difluoromethoxy)-5-fluoropyridine-3-carboxamide], the inhibition at 10 µM in test [4] came to 83%.

`COc1cc(C#N)cc(CNC(=O)c2cnc(OC(F)F)c(F)c2)c1` [Example 24, N-[(3-cyano-5-methoxyphenyl)-methyl]-6-(difluoromethoxy)-5-fluoropyridine-3-carboxamide]: the inhibition at 10 µM in test [4] amounted to 97%.

With `COc1ncc(C#N)cc1CNC(=O)c1cnc(OC(F)F)c(F)c1` [Example 9, N-[(5-cyano-2-methoxypyridin-3-yl)methyl]-6-(difluoromethoxy)-5-fluoropyridine-3-carboxamide], the inhibition at 10 µM in test [4] is 94%. Also, the “inhibitory rate (1 mg/kg, p.o.)” value in test [5] is 10%.

`N#Cc1ccc(C2CC2)c(CNC(=O)c2ccc(OC(F)F)c(F)c2)c1` [Example 6, N-[(5-cyano-2-cyclopropylphenyl)-methyl]-4-(difluoromethoxy)-3-fluorobenzamide]: in test [4], the inhibition at 10 µM was found to be 93%.

On to `COc1ccc(C#N)cc1CNC(=O)c1ccc(OC(F)(F)F)c(F)c1` [Example 11, N-[(5-cyano-2-methoxyphenyl)-methyl]-3-fluoro-4-(trifluoromethoxy)-benzamide], for which the inhibition at 10 µM in test [4] is 96%.

On to `N#Cc1ccc(Br)c(CNC(=O)c2ccc(OC(F)(F)F)c(F)c2)c1` [Example 1, N-[(2-bromo-5-cyanophenyl)methyl]-3-fluoro-4-(trifluoromethoxy)benzamide], for which the inhibition at 10 µM in test [4] was 86%.

With `COc1cnc(C#N)c(F)c1CNC(=O)c1cnc(OC(F)F)c(F)c1` [Example 22, N-[(2-cyano-3-fluoro-5-methoxypyridin-4-yl)methyl]-6-(difluoromethoxy)-5-fluoropyridine-3-carboxamide], the inhibition at 10 µM in test [4] amounted to 94%.

Take `COc1c(F)cc(C#N)cc1CNC(=O)c1cnc(OC(F)F)c(F)c1` [Example 20, N-[(5-cyano-3-fluoro-2-methoxyphenyl)-methyl]-6-(difluoromethoxy)-5-fluoropyridine-3-carboxamide]: the inhibition at 10 µM in test [4] was 97%.

With `COc1c(C#N)ccc(F)c1CNC(=O)c1cnc(OC(F)F)c(F)c1` [Example 15, N-[(3-cyano-6-fluoro-2-methoxyphenyl)-methyl]-(difluoromethoxy)-5-fluoropyridine-3-carboxamide], the inhibition at 10 µM in test [4] came out at 89%.

As for `CNC1(c2ccccc2Cl)CCCCC1=O` (centres unmarked) [ketamine], the “depression symptoms accompanying major depression and bipolar disorder” value in test [7] is “improves depression symptoms accompanying major depression and bipolar disorder rapidly and in a sustained manner”.

For `N#Cc1ccc(OCC(F)(F)F)c(CNC(=O)c2cnc(OC(F)F)c(F)c2)c1` [Example 13, N-{[5-cyano-2-(2,2,2-trifluoroethoxy)-phenyl]-methyl}-6-(difluoromethoxy)-5-fluoropyridine-3-carboxamide], the inhibition at 10 µM in test [4] came to 93%.

`N#Cc1ccc(C2CC2)c(CNC(=O)c2cnc(OC(F)F)c(F)c2)c1` [Example 5, N-[(5-cyano-2-cyclopropylphenyl)-methyl]-6-(difluoromethoxy)-5-fluoropyridine-3-carboxamide]: the inhibition at 10 µM in test [4] was 95%.

Take `COc1c(CNC(=O)c2cnc(OC(F)F)c(F)c2)cc(C#N)nc1C` [Example 27, N-[(6-cyano-3-methoxy-2-methyl-pyridin-4-yl)methyl]-6-(difluoromethoxy)-5-fluoropyridine-3-carboxamide]: in test [4], the inhibition at 10 µM stood at 77%.

As to `COc1ccc(C#N)nc1CNC(=O)c1cnc(OC(F)F)c(F)c1` [Example 19, N-[(6-cyano-3-methoxypyridin-2-yl)methyl]-6-(difluoromethoxy)-5-fluoropyridine-3-carboxamide], the inhibition at 10 µM in test [4] was 89%.
